Assay results as given in US20230103965A1, “NOVEL ACTIVATORS OF THE LIPIDATING TRANSPORTER ATP BINDING CASSETTE PROTEIN TYPE 1 (AB-CA1) AND THERAPEUTIC USES THEREOF” (RAMOT AT TEL-AVIV UNIVERSITY LTD., priority 2020, published 2023).

The compounds below were run on Rodent Astrocytes (assay: In situ Aβ plaque digestion by apoE4 astrocytes (orthogonal assay)). Details: Table 2.
Assay type: cell-based
Description: FIG. 7: Schematic representation of assay measuring in situ A$ plaque degradation by apoE3 and apoE4 astrocytes. The assay is designed to measure the ability of astrocytes to digest senile plaques from brain slides of APP mice, which is impaired in apoE4 expressing astrocytes.
FIG. 9: Activity of test compounds (HTS hits) in the plaque digestion assay. Positive control is CS-6253 (25 μg/ml). Test compound concentration is 50 μM.
In situ Aβ plaque degradation by apoE3 and apoE4 astrocytes. This assay is based on measurement of the ability of the astrocytes to clear Aβ plaques following their co-incubation with brain sections of 5×FAD mice, which contain Aβ plaques. Accordingly, 20 μm coronal frozen brain sections were prepared from 9-13-month-old 5×FAD mice using cryostat and placed on glass slides, 3-4 consecutive sections in each slide. The slides were kept at −80° C. until used. At the beginning of the experiment, the slices were incubated for 48 hr at 37° C. with apoE3 and apoE4 astrocytes (10^5 cells in 100 μl medium per slice) in the presence of 50 μM, or otherwise indicated concentrations, of the HTS hits. The slides were gently placed in round petri dishes with thick wet paper, surrounding the slides. PapPen was used to draw liquid repellent borders of the sections to avoid spillage of coating out of the slides. The slides were gently washed of all containing remains by placing them in PBS for 10 minutes, and were then fixated with 4% PFA for 10 minutes, followed by 0.1% Triton solution for 10 minutes. The slides were then incubated with blocking solution (8% Horse Serum, 0.3% Triton, 1 gr/ml BSA, 0.02% Sodium Azide in PBS) for 30 minutes after which they were immunohistochemically stained with primary anti-PAmyloid (6E10) antibody at a dilution of 1:750 in blocking solution for 1 hr at room temperature. This was then followed by washing (×5 with PBST) and incubation with the secondary antibody (Alexa Fluor® 488 donkey α-mouse IgG, A-21202 at dilution of 1:250 at room temperature for 45 minutes. Nuclei were stained with DAPI (Vektashield, Burlingame, Calif.; H-1200). Analysis of the Aβ plaque burden was performed as percentage of the area covered in plaques using the ImageJ software.
(i) Orthogonal assay which monitors the extent to which the hits can reverse the impaired ability of apoE4 astrocytes to digest Aβ senile plaques in vitro. The principle of this orthogonal assay is presented in FIGS. 7 & 8 [17], whereas the activity of the HTS hits in this assay is presented in FIG. 9.

First: Cc1nn(CC(=O)c2ccc(Br)s2)c(C)c1[N+](=O)[O-] [Hit #3]
Second: O=[N+]([O-])c1ccc(N2CCCCC2)c2nonc12 [Hit #7]
The “Plaque digestion assay (50 μM) Rodent Astrocytes” value (from here on “Plaque digestion assay”) of the first is lower: 78% for the first, 93% for the second.

Compared with `CC(C)(C)C(=O)COC(=O)c1ccccc1SCc1cc(-c2ccco2)on1` [Hit #4], `CSC(SC)=C1CC/C(=C/c2ccc(N(C)C)cc2)C1=O` [Hit #14] is higher in “Plaque digestion assay” value: 62% for the first, 134% for the second.

`C[C@]12CC[C@@H](O)CC1CCC1C2CC[C@](C)(C(=O)O)C1/C=C1/Nc2ccccc2C1=O` (some centres unmarked) [Hit #12] was tested, and the “Plaque digestion assay” value was 105%.

Same assay, conditions: Table 4

First: Cc1nn(CC(=O)c2ccc(Br)s2)c(C)c1[N+](=O)[O-] [Hit #3]
Second: O=[N+]([O-])c1ccc(N2CCCCC2)c2nonc12 [Hit #7]
The “Plaque digestion assay” value of the first is lower: 78% for the first, 93% for the second.

First: CC(C)(C)C(=O)COC(=O)c1ccccc1SCc1cc(-c2ccco2)on1 [Hit #4]
Second: CSC(SC)=C1CC/C(=C/c2ccc(N(C)C)cc2)C1=O [Hit #14]
The “Plaque digestion assay” value of the first is lower: 62% for the first, 134% for the second.

For `C[C@]12CC[C@@H](O)CC1CCC1C2CC[C@](C)(C(=O)O)C1/C=C1/Nc2ccccc2C1=O` (some centres unmarked) [Hit #12], the “Plaque digestion assay” value was 105%.

What follows are compounds tested against T1, ECD1 of ABCA1 (Homo sapiens, UniProt O95477) (assay: Microscale thermophoresis (MST) binding, label free protein). Details: unlabelled ECD1.
T1 construct: The proteins used in these experiments were Extra-Cellular Domain 1 (ECD1) of ABCA1 and Extra-Cellular Domain 2 (ECD2); purchased Biomatick
T1 sequence (O95477 43-639 limits assumed): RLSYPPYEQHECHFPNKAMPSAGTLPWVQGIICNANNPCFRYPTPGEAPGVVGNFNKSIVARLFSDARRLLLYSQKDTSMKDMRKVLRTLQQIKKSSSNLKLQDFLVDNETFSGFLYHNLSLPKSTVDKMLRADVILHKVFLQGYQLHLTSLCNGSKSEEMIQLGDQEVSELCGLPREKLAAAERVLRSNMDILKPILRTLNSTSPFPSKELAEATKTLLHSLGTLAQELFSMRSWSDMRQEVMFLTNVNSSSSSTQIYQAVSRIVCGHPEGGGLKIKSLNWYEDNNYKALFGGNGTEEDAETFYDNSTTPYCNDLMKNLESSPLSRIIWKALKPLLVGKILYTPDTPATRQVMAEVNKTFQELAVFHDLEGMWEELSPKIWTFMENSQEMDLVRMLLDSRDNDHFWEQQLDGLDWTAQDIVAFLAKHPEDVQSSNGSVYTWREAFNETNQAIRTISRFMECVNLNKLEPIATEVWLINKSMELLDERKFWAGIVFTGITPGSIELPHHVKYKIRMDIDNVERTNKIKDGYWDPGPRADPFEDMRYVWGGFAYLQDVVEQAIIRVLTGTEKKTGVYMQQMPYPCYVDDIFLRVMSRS
Description: Microscale thermophoresis (MST) measurements. MST measurements of the binding of the HTS hits to the extracellular domain (ECD) of ABCA1 were performed by two complimentary methods utilizing either fluorescently labeled proteins or the endogenous fluorescence of unlabeled proteins. This was pursued as follows:
The experiments were performed with the purified extracellual domains 1 (ECD1) and 2 (ECD2) of ABCA1 [18]. Two complementary MST tests were performed, in which either the proteins were labeled with a fluorescence moiety or the endogenous fluorescence of the unlabeled proteins was monitored).

First: Cc1nn(CC(=O)c2ccc(Br)s2)c(C)c1[N+](=O)[O-] [Hit #3]
Second: CC(C)(C)C(=O)COC(=O)c1ccccc1SCc1cc(-c2ccco2)on1 [Hit #4]
The “Binding to ECD1 (Label free MST) Amplitude” value of the first is higher: 39.96 a.u for the first, 16.45 a.u for the second.

Compared with `C[C@]12CC[C@@H](O)CC1CCC1C2CC[C@](C)(C(=O)O)C1/C=C1/Nc2ccccc2C1=O` (some centres unmarked) [Hit #12], `CSC(SC)=C1CC/C(=C/c2ccc(N(C)C)cc2)C1=O` [Hit #14] is lower in “Binding to ECD1 (Label free MST) Amplitude” value: 90.25 a.u for the first, 0 a.u for the second.

Going from `Cc1nn(CC(=O)c2ccc(Br)s2)c(C)c1[N+](=O)[O-]` [Hit #3] to `CC(C)(C)C(=O)COC(=O)c1ccccc1SCc1cc(-c2ccco2)on1` [Hit #4], the Kd rises from 178 µM to greater than 350 µM.

`C[C@]12CC[C@@H](O)CC1CCC1C2CC[C@](C)(C(=O)O)C1/C=C1/Nc2ccccc2C1=O` (some centres unmarked) [Hit #12] showed a Kd of 314 µM.
